# Reference: patent publication US7638554B2, “Flavanoids as chemotherapeutic, chemopreventive, and antiangiogenic agents” (SRI International, priority 2002, dated 2009)
# Columns and labels:
# [1] = test system: SKOV-3 human ovarian cancer xenografts; assay: SKOV-3 adriamycin- and cisplatin-resistant human ovarian cancer xenografts in nude mice; format: in vivo, female BALB/c mice
# Experimental: The in vivo antitumor activity of SR 13179 against the highly aggressive adriamycin and cisplatin-resistant human ovarian cancer cell line SKOV-3 was evaluated in nude mice xenografts. The experiment was carried out as follows: Female BALB/c mice were inoculated subcutaneously with the human ovarian cancer SKOV-3 cells on both flanks. SR 13179 was administered to the mice on the same day as tumor cell inoculation, via two routes of administration, orally and intraperitoneally, in three doses of 10 mg/kg, 30 mg/kg and 100 mg/kg, once a day as a suspension in 0.5% hydroxypropylcellulose. Body weights and tumor volumes were measured twice a week. Results. […] The body weights of the treated mice were unaffected at all doses studied.
# [2] = test system: MCF-10CA1a breast cancer cells; assay: Boyden-chamber Matrigel invasion/migration assay, MCF-10CA1a; format: cell-based, human
# Experimental: Cell Culture. MCF-10CA1a cells were cultured in Dulbecco's Modified Eagle Medium (DMEM) supplemented with 5% bovine serum, 2 mM glutamine and 1 mM non-essential amino acids. MDA-MB231 cells were grown in DMEM supplemented with 5% bovine serum. Cells were routinely maintained in a 5% CO2 incubator at 37° C.
# General Procedure for Invasion Assay. MCF 10-CA1a or MDA-MB-231 breast cancer cells were treated with 1 or 5 μM of the compound being tested for 8 h. Cells were removed by trypsinizing and tested for their invasiveness by Boyden-chamber invasion assay. In the in vitro invasion/migration assays, a standard Matrigel-based assay, according to the manufacturer's (Becton-Dickinson) protocol, was used. Rehydrated Matrigel and control inserts were added to Falcon TC companion plates containing human fibronectin (30 μg/ml) as chemoattractant. Cellular suspensions (2×10^4 cells/0.5 ml) were added to individual wells of 24-well chambers (containing either control or Matrigel inserts), and the plates incubated (37° C., 5% CO2) in the presence of the compound being tested or vehicle for an additional 16-18 h. Non-invading or non-migrating cells were removed by scraping the top surfaces of the Matrigel and control inserts, respectively. The invading (or migrating) cells (on the bottom surface) were fixed (3.7% formaldehyde) and stained with Accustain (Sigma). The percent invasion was calculated as mean number of invading cells/the mean number of cells migrating through a control membrane×100.
# The in vitro invasion through Matrigel was studied for two human breast cancer lines: MCF-10CA1a, a highly metastatic ER^+ line and MDA-MB-231, an ER^− line. […] At this concentration, SR13179 inhibited invasion of MDA-MB-231 by about 30% (and by 70% at 5 μM). To rule out a cytotoxic effect in the inhibition of invasion, a concurrent cytotoxicity assay was carried out and the number of viable cells was determined by MTT assay. There was less than 5% decrease in MDA-MB-231 cell viability at 5 μM concentration of SR13179 at 22 h. […]
# [3] = test system: colon cancer cell line HCC-2998; assay: Growth inhibition, sulforhodamine-based protein determination, HCC-2998; format: cell-based; settings: Homo sapiens, HCC 2998, 144 h; continuous exposure six days
# Experimental: (§1) The novel compound SR 13179 was assayed for its ability to inhibit growth in several cancer cell lines. The cell lines studied included breast cancer cell line MCF-7 (ER+); prostate cancer cell lines LNCaP, PC3, and DU145; lung cancer cell line A427; ovarian cancer cell lines IGROV1, OVCAR-3, OVCAR-4, OVCAR-5, OVCAR-8, and SK-OV-3; and colon cancer cell lines COLO 205, HCC-2998, HCT-116, HCT-15, HT29, KM12, AND SW-620.
# (§2) The growth assays for the breast cancer cell lines were conducted according to the method of Example 16. For the other cell lines, each assay was conducted with continuous exposure to the test compound at four log concentrations for six days, using a sulforhodamine-based protein determination to measure growth inhibition.
# [4] = test system: MMP-2; assay: Extracellular level of MMP-2, MCF-10CA1a cells; format: cell-based, human; settings: 5 μM
# Experimental: The effect of SR13179 on the extracellular levels of TIMP-2 as well as MMP-2 was also investigated. Treatment of MCF-10CA1a cells with SR13179 at 5 μM concentration caused 5- to 8-fold increase in the secreted level of TIMP-2 and a 2-fold decrease in the extracellular level of MMP-2. However, extracellular TIMP-2 protein was always associated with MMP-2 protein, even after the samples were boiled for 10 min and separated under the denaturing conditions of gel electrophoresis.
# [5] = test system: lung cancer cell line A427; assay: Growth inhibition, sulforhodamine-based protein determination, A427; format: cell-based; settings: Homo sapiens, A-427, 144 h; continuous exposure six days
# Experimental: as §1, §2
# [6] = test system: colon cancer cell line COLO 205; assay: Growth inhibition, sulforhodamine-based protein determination, COLO 205; format: cell-based; settings: Homo sapiens, COLO 205, 144 h; continuous exposure six days
# Experimental: as §1, §2
# [7] = test system: ovarian cancer cell line OVCAR-4; assay: Growth inhibition, sulforhodamine-based protein determination, OVCAR-4; format: cell-based; settings: Homo sapiens, OVCAR-4, 144 h; continuous exposure six days
# Experimental: as §1, §2
# [8] = test system: MMP-2 (gelatinase); assay: Zymography of MMP-2 activity in supernatants of MCF-10-CA1a cultures; format: cell-based, human; settings: 5 μM, 48 h, serum-free medium
# Experimental: Zymography. Zymography as used herein is illustrated by the following general procedure. MCF10CA1a cells were grown in 100 mm in diameter tissue culture plates until 90% confluent. The cells were washed once with serum-free medium and placed in serum-free medium for 2 h prior to drug treatment. The candidate agent was added to the plate and the plate was incubated in the 5% CO2 incubator at 37° C. for 16 h. The medium was collected, concentrated and subjected to zymography. In brief, 10 μl of the sample was electrophoresed in 8% polyacrylamide gel containing 0.1% gelatin in the presence of SDS. After electrophoresis, gel was washed two times, 20 min each, in 2.5% Triton X-100 and incubated overnight at 37° C. in a solution containing 50 mM Tris-HCl, pH 8, 5 mM CaCl2, 10 mM ZnCl2 and 0.02% NaN3. The gel was then stained for 30 min with 0.5% Coomassie Brilliant Blue R-250 prepared in 30% methanol/10% acetic acid solution and destained with several washes with water.
# The effect of SR 13179 on the activity of MMP-2 (gelatinase) was studied. MCF-10-CA1a cells were treated with 1, 3, and 5 μM SR 13179 in serum-free medium for 48 h. Untreated cells, grown under the same conditions, were used as control. After treatment, supernatants of the cultures were concentrated and subjected to zymography.
# [9] = test system: colon cancer cell line HCT-116; assay: Growth inhibition, sulforhodamine-based protein determination, HCT-116; format: cell-based; settings: Homo sapiens, HCT-116, 144 h; continuous exposure six days
# Experimental: as §1, §2
smiles,measurement,setting,value
"COc1cc(C2CC(O)c3ccc4ccccc4c3O2)cc(OC)c1OC (stereo not shown) [SR 13179, 2-(3,4,5-trimethoxyphenyl)-3,4-dihydro-2H-benzo[h]chromen-4-ol]",tumors smaller than untreated control,"[1]; Day 10, oral and i.p., 10, 30 and 100 mg/kg once a day",about 50%
same,body weights of the treated mice,"[1]; all doses studied (10, 30, 100 mg/kg; oral and i.p.)",unaffected
same,tumor growth compared to untreated control,"[1]; duration of the four-week study, oral and i.p.",significantly inhibited
same,Invasion,[2]; 1 μM,10 % of Control
same,Migration,[2]; 1 μM,70 % of Control
same,inhibition at 1 µM,"[2]; Homo sapiens, read-out: inhibition of invasion through Matrigel",90%
same,IC50,[3],278 nM
same,decrease in the extracellular level of MMP-2,[4],2 fold
same,IC50,[5],510 nM
same,IC50,[6],266 nM
same,IC50,[7],423 nM
same,inhibition of MMP-2 activity,[8],> 50%
same,IC50,[9],310 nM
